Counter-ions that a name gives are not always drawn. Like-named read-outs stand apart in the source and are kept apart here.
Key:
[1] = molecular target: T1, SARS-CoV-2 PLpro (nsp3 1564–1878) (Severe acute respiratory syndrome coronavirus 2, UniProt P0DTD1); test: biochemical; parameters: FRET-quenched peptide (Pro3) cleavage by PLpro, 10 min pre-incubation, slope over 20 min, normalised to no-compound control; settings: low concentration screen, read-out: % of control remaining
[2] = molecular target: T1, SARS-CoV-2 PLpro (nsp3 1564–1878); test: biochemical; parameters: FRET-quenched peptide (Pro3) cleavage by PLpro, 10 min pre-incubation, slope over 20 min, normalised to no-compound control; settings: high concentration screen, read-out: % of control remaining

CN1[C@@H](CC(=O)c2ccccc2)CCC[C@H]1C[C@H](O)c1ccccc1 [alpha-Lobeline hydrochloride]
remaining activity at 1.25 µM ([1]; Well no.=1025): 98.8%
remaining activity at 3.75 µM ([2]; Well no.=1025): 102%

CC(N)Cc1c[nH]c2ccc(O)cc12 (stereo not drawn) [alpha-Methyl-5-hydroxytryptamine maleate]
remaining activity at 1.25 µM ([1]; Well no.=895): 106%
remaining activity at 3.75 µM ([2]; Well no.=895): 106%

Nc1cc(-c2ccncc2)c[nH]c1=O [amrinone]
remaining activity at 1.25 µM ([1]; Well no.=2146): 102%
remaining activity at 3.75 µM ([2]; Well no.=2146): 100%

O=C(OCOC(=O)[C@H]1CCCN1C(=O)CCCCC(=O)N1CCC[C@@H]1C(=O)OCOC(=O)OC1CCOCC1)OC1CCOCC1 [amyloid P-IN-1]
remaining activity at 1.25 µM ([1]; Well no.=7788): 103%
remaining activity at 3.75 µM ([2]; Well no.=7788): 105%

N[C@@H](CCl)C(=O)O [beta-Chloro-L-alanine hydrochloride]
remaining activity at 1.25 µM ([1]; Well no.=142): 103%
remaining activity at 3.75 µM ([2]; Well no.=142): 105%

C[C@]12CC[C@@H]3c4ccc(O)cc4CC[C@H]3[C@@H]1CC[C@@H]2O [beta-Estradiol]
remaining activity at 1.25 µM ([1]; Well no.=511): 107%
remaining activity at 3.75 µM ([2]; Well no.=511): 104%

O=C(/C=C/c1ccc(O)cc1)CC(=O)/C=C/c1ccc(O)cc1 [bis-demethoxycurcumin]
remaining activity at 1.25 µM ([1]; Well no.=4089): 98.7%
remaining activity at 3.75 µM ([2]; Well no.=4089): 101%

Nc1ncnc2c1ncn2[C@@H]1O[C@@H]2CO[P@@](=O)(O)O[C@H]3[C@@H](O)[C@H](n4cnc5c(N)ncnc54)O[C@@H]3CO[P@@](=O)(O)O[C@H]2[C@H]1O [c-di-AMP]
remaining activity at 1.25 µM ([1]; Well no.=7914): 91.4%
remaining activity at 1.25 µM ([1]; Well no.=8703): 104%
remaining activity at 3.75 µM ([2]; Well no.=7914): 90.2%
remaining activity at 3.75 µM ([2]; Well no.=8703): 102%

OCCN1CCN(CC/C=C2/c3ccccc3Sc3ccc(C(F)(F)F)cc32)CC1 [cis-(Z)-Flupenthixol dihydrochloride]
remaining activity at 1.25 µM ([1]; Well no.=617): 99.6%
remaining activity at 3.75 µM ([2]; Well no.=617): 98.7%

O=C(O)[C@@H]1C[C@H](C(=O)O)N1 [cis-Azetidine-2,4-dicarboxylic acid]
remaining activity at 1.25 µM ([1]; Well no.=20): 101%
remaining activity at 3.75 µM ([2]; Well no.=20): 99.7%

CCn1nc(C)cc1C(=O)Nc1nc2cc(C(N)=O)cc(OC)c2n1C/C=C/Cn1c(NC(=O)c2cc(C)nn2CC)nc2cc(C(N)=O)cc(OCCCN3CCOCC3)c21 [diABZI STING agonist-1 (trihydrochloride)]
remaining activity at 1.25 µM ([1]; Well no.=8553): 110%
remaining activity at 3.75 µM ([2]; Well no.=8553): 102%

CCCCCCCCCCCCCCCCn1cc[n+](Cc2ccccc2)c1C [eEF-2 Kinase Inhibitor, NH125]
remaining activity at 1.25 µM ([1]; Well no.=2790): 102%
remaining activity at 3.75 µM ([2]; Well no.=2790): 108%

CCCCCC[C@@H]([C@@H](C)O)n1cnc2c(N)ncnc21 [erythro-9-(2-Hydroxy-3-nonyl)adenine hydrochloride]
remaining activity at 1.25 µM ([1]; Well no.=513): 105%
remaining activity at 3.75 µM ([2]; Well no.=513): 105%

CCOC(=O)[C@@H](N)CCC(=O)N[C@@H](CSCc1ccccc1)C(=O)N[C@@H](C(=O)OCC)c1ccccc1 [ethyl N5-((R)-3-(benzylthio)-1-(((R)-2-ethoxy-2-oxo-1-phenylethyl)amino)-1-oxopropan-2-yl)-L-glutaminate]
remaining activity at 1.25 µM ([1]; Well no.=5457): 105%
remaining activity at 3.75 µM ([2]; Well no.=5457): 108%

C#CC(N)CCC(=O)O (stereo not shown) [gamma-Acetylinic GABA]
remaining activity at 1.25 µM ([1]; Well no.=258): 94%
remaining activity at 3.75 µM ([2]; Well no.=258): 94.8%

N[C@H](CCC(=O)NCS(=O)(=O)O)C(=O)O [gamma-D-Glutamylaminomethylsulfonic acid]
remaining activity at 1.25 µM ([1]; Well no.=652): 92.4%
remaining activity at 3.75 µM ([2]; Well no.=652): 94%

COc1cc(C(O)C(=O)O)ccc1O (stereo not shown) [hydroxy(4-hydroxy-3-methoxyphenyl)acetic acid]
remaining activity at 1.25 µM ([1]; Well no.=5433): 103%
remaining activity at 3.75 µM ([2]; Well no.=5433): 108%

O[C@H]1[C@H](O)[C@@H](O)[C@H](O)[C@@H](O)[C@H]1O [i-Inositol]
remaining activity at 1.25 µM ([1]; Well no.=6495): 98.4%
remaining activity at 3.75 µM ([2]; Well no.=6495): 101%

O=C1NCCSc2c1sc1ccc(O)cc21 [kb NB 142-70]
remaining activity at 1.25 µM ([1]; Well no.=6738): 92%
remaining activity at 3.75 µM ([2]; Well no.=6738): 92.4%

CC(C(=O)O)c1ccc(CC2CCCC2=O)cc1 (stereo not shown) [loxoprofen]
remaining activity at 1.25 µM ([1]; Well no.=927): 104%
remaining activity at 3.75 µM ([2]; Well no.=927): 105%

CN1CCN2c3c(cccc31)[C@@H]1CN(CCCC(=O)c3ccc(F)cc3)CC[C@@H]12 [lumateperone (Tosylate)]
remaining activity at 1.25 µM ([1]; Well no.=7807): 104%
remaining activity at 3.75 µM ([2]; Well no.=7807): 108%

Cc1cc(C)c(S(=O)(=O)Nc2cccc(C(F)(F)F)c2)c(C)c1 [m -3M3FBS]
remaining activity at 1.25 µM ([1]; Well no.=5841): 99.6%
remaining activity at 3.75 µM ([2]; Well no.=5841): 98.2%

NC(N)=NCc1cccc(I)c1 [m -Iodobenzylguanidine hemisulfate salt]
remaining activity at 1.25 µM ([1]; Well no.=6075): 99.1%
remaining activity at 3.75 µM ([2]; Well no.=6075): 97.8%

NC(N)=NCc1cccc(I)c1 [m-Iodobenzylguanidine hemisulfate]
remaining activity at 1.25 µM ([1]; Well no.=777): 105%
remaining activity at 3.75 µM ([2]; Well no.=777): 108%

OC[C@@H](O)[C@@H](O)CO [meso-Erythritol]
remaining activity at 1.25 µM ([1]; Well no.=6547): 107%
remaining activity at 3.75 µM ([2]; Well no.=6547): 106%

CCCCCCCCOC(=O)/C=C/c1ccc(O)c(O)c1 [n-Octyl caffeate]
remaining activity at 1.25 µM ([1]; Well no.=4043): 93.2%
remaining activity at 3.75 µM ([2]; Well no.=4043): 95.8%

Oc1ccc2c3c1O[C@H]1c4[nH]c5c(c4C[C@@]4(O)[C@@H](C2)N(CC2CC2)CC[C@]314)C[C@@]1(O)[C@H]2Cc3ccc(O)c4c3[C@@]1(CCN2CC1CC1)[C@H]5O4 [nor-Binaltorphimine dihydrochloride]
remaining activity at 1.25 µM ([1]; Well no.=805): 100%
remaining activity at 3.75 µM ([2]; Well no.=805): 97%

Oc1ccc2ccccc2c1SSc1c(O)ccc2ccccc12 [p21-Activated Kinase Inhibitor III, IPA-3]
remaining activity at 1.25 µM ([1]; Well no.=2525): 99.9%
remaining activity at 3.75 µM ([2]; Well no.=2525): 102%

CSc1nc(-c2ccnc(NC(C)c3ccccc3)c2)c(-c2ccc(F)cc2)[nH]1 (stereo not shown) [p38 MAP Kinase Inhibitor III]
remaining activity at 1.25 µM ([1]; Well no.=2596): 94.7%
remaining activity at 3.75 µM ([2]; Well no.=2596): 94.5%

O=S(=O)(c1c(O)c(Cl)cc(Cl)c1Cl)c1c(O)c(Cl)cc(Cl)c1Cl [p38 MAP Kinase Inhibitor IV]
remaining activity at 1.25 µM ([1]; Well no.=2527): 97.2%
remaining activity at 3.75 µM ([2]; Well no.=2527): 103%

COc1cc(SC)ccc1C(=O)N1CCC(Cc2ccccc2)CC1 [p38 MAP Kinase Inhibitor VI, JX401]
remaining activity at 1.25 µM ([1]; Well no.=2529): 101%
remaining activity at 3.75 µM ([2]; Well no.=2529): 105%

NC(=O)c1ccc2[nH]ccc2c1 [p38 MAP Kinase Inhibitor VII, SD-169]
remaining activity at 1.25 µM ([1]; Well no.=2531): 99.1%
remaining activity at 3.75 µM ([2]; Well no.=2531): 94.8%

O=c1c(-c2ccc(F)cc2)c(-c2ccncc2)[nH]n1-c1ccc(Cl)cc1 [p38 MAP Kinase Inhibitor]
remaining activity at 1.25 µM ([1]; Well no.=2598): 97.4%
remaining activity at 3.75 µM ([2]; Well no.=2598): 99.2%

CC(=O)Nc1ccc(NC(=S)NC(=O)c2ccc(C(C)(C)C)cc2)cc1 [p53 Activator (Tenovin-1)]
remaining activity at 1.25 µM ([1]; Well no.=2901): 97.7%
remaining activity at 3.75 µM ([2]; Well no.=2901): 96.4%
